Laboratory results: patent publication USRE39485E1 (Aesgen, Inc., priority 1993, dated 2007)
Where “and” joins values, the source holds several entries; their conditions need not be identical. Equal entries are not always repeated.

Assays:
[1] = system: patients experiencing mucositis of the oropharynx following a course of chemotherapy; assay: Oral glutamine swish and swallow trial in patients with chemotherapy induced oral mucositis; assay type: in vivo, human; design: key to Maximum Grade of Mucositis: 0: no mucositis; 1: painful mucositis not necessitating a change in oral intake; 2A: painful mucositis restricting intake to soft foods; 2B: painful mucositis restricting oral intake to liquids; 3: mucositis preventing oral intake
From the text: Patients experiencing mucositis of the oropharynx following a course of chemotherapy were offered the opportunity to enter this study if no other clinical parameters precluded receiving the same chemotherapy doses during the next course of treatment. […] Other carriers, flavor enhancers, gums, and suspending agents known in the art may be employed. The suspension was stored in a refrigerator during use for a maximum of 1 month. […] The severity of mucositis was graded as: 0, no mucositis; 1, painful mucositis not necessitating a change in oral intake; 2A, painful mucositis restricting intake to soft foods; 2B, painful mucositis restricting oral intake to liquids; and 3, mucositis preventing oral intake (CALGB criteria). Maximum grade of mucositis and total number of days of mucositis were compared by the paired t-test. All patients gave written informed consent, and the trial was approved by the Institutional Review Board of the University of Minnesota. Ten adults, 5 men and 5 women, were entered in the study. […] One patient with AIDS and Kaposi's sarcoma was treated with doxorubicin by constant iv infusion over 5 days with bolus DTIC and vincristine. One patient with breast cancer was treated with doxorubicin, cyclophosphamide, and 5-FU, iv bolus.

[2] = system: animals given methotrexate; conditions: administered after methotrexate; cited from earlier work
[3] = system: adults undergoing allogeneic bone marrow transplantation for hematologic malignancies; conditions: cited from earlier work
[4] = 0.57 g/kg/day in parenteral nutrition solutions for 5 days; cited from earlier work
[5] = system: rats treated with methotrexate; conditions: glutamine supplementation of an elemental diet; cited from earlier work
[6] = oral dose of 0.3 g/kg; cited from earlier work
[7] = system: rats given abdominal radiotherapy; conditions: glutamine group vs glycine enriched group; cited from earlier work
[8] = parenteral glutamine supplementation vs none

NC(=O)CC[C@H](N)C(=O)O [glutamine, L-glutamine]
Subjective Improvement of Mucositis ([1]; Chemotherapy + Glutamine 2 gm/m^2 BID vs previous identical chemotherapy without glutamine, one line per patient (1-10)): Yes (9×) and No | Maximum Grade of Mucositis ([1]; chemotherapy + glutamine, L-glutamine 2 g/m^2 swish and swallow twice daily, one line per patient (1-10), CALGB criteria): 1 (7×) and 0 (3×) | toxicity of the glutamine ([1]; oral glutamine 2 g/m^2 twice daily, ambulatory patients): absence of any detectable toxicity | patients in whom the maximum grade of mucositis remained the same (grade 1) ([1]; with glutamine supplementation): 2/10 | patients in whom the total number of days of mucositis decreased ([1]; with glutamine supplementation): 9/10 | median score of maximum grade of mucositis ([1]; with glutamine supplementation (2 without), p=0.001): 1 | total number of days of mucositis, mean (SEM) ([1]; with glutamine supplementation (10.1±1.2 without), p=0.001): 3.8 ± 1.0 days | patients in whom the maximum grade of mucositis decreased ([1]; with glutamine supplementation vs previous course, p=0.001): 8/10 | patients in whom glutamine allowed chemotherapy doses that would otherwise have had to be reduced due to mucositis ([1]; with the addition of glutamine): 8/10 | patients who felt that the mucositis was less severe ([1]; with the addition of glutamine): Nine of the 10 | survival rate, enteral vs parenteral supplementation [2]: better survival rate | severity of oral mucositis (stomatitis) ([3]; high dosage of intravenous glutamine vs no glutamine): no difference | episodes of clinical infections [3, 8]: fewer episodes of clinical infections | median hospitalization [3, 8]: shorter median hospitalization | nitrogen balance [3, 8]: better nitrogen balance | tolerability [4]: well tolerated | incidence of bacteremia [5]: lower incidence of bacteremia | mortality [5]: less mortaility | mucosal weight of the jejunum and colon [5]: increased mucosal weight of the jejunum and colon | survival [5]: longer survival | weight loss [5]: less weight loss | clinical toxicity or measurable toxic metabolites (ammonia or glutamate) [6]: no evidence of clinical toxicity or generation of measurable toxic metabolites | mucosal structure [7]: more normal mucosal structure | survival rate [7]: higher survival rate
